Tested on: HCT116 NVL^R403W cells
Experiment: Cell viability counter-screen in compound-resistant HCT116 NVL^R403W cells
Type: cell-based, human
Details: Homo sapiens, HCT-116; NVL^R403W knock-in
Procedure: Design and synthesis of benzothiazepine-based NVL inhibitors. […] Analogs were evaluated against the colorectal cancer cell line HCT116, and counter-screened against a compound resistant NVL2^R403W clone. Cytotoxicity in wild-type HCT116 was determined. […] Initial SAR focused on exploring the replacement of the furan ring of initial dibenzothiazepinone hit MM017. We first explored a wide variety of mono- and di-substituted phenyl rings, including a broad spectrum of functionality (F, Cl, alkyl, alkoxy, fluoroalkoxy, CN, formamide, S(O) Me, carboxyl, . . . ). […]
HCT116 cells were transfected with TransIT-LT (Mirus #MIR2304) according to manufacturer's protocol with a guide RNA (either mock or NVL targeting) in the px330 vector (Addgene, #42230), and 10 nM single stranded deoxyoligonucleotide encoding a specific NVL mutation (see below for specific sequences). […] The resulting cells were evaluated by cresyl violet staining or collected and the relevant NVL mutations were analyzed by either amplicon or sanger sequencing.
Cell viability assay: In 96-well assay plates (Corning #2903), 2,000 cells were plated per well in 100 μL of medium and allowed to adhere overnight. […] Luminescence (CellTiter-Glo) was recorded using a Synergy 2 microplate reader (BioTek). […]

COCCN1C(=O)c2ccccc2Sc2cc(NC(=O)c3ccoc3)ccc21 [MM017]
IC50: > 50 µM
